In ChEMBL document CHEMBL1759876, “PNA containing isocytidine nucleobase: synthesis and recognition of double helical RNA” (Bioorg Med Chem Lett, 2011):

Key:
Type in all cases: nucleic-acid assay
Hairpin ribozyme RNA [1] = assay: Binding affinity to double helical RNA hairpin HRP1 in sodium acetate buffer at pH 5.5
Hairpin ribozyme RNA [2] = assay: Binding affinity to double helical RNA hairpin HRP2 in sodium acetate buffer at pH 5.5
Hairpin ribozyme RNA [3] = assay: Binding affinity to double helical RNA hairpin HRP3 in sodium acetate buffer at pH 5.5
Hairpin ribozyme RNA [4] = assay: Binding affinity to double helical RNA hairpin HRP4 in sodium acetate buffer at pH 5.5

SMILES	Ka (Hairpin ribozyme RNA [1]) [×10⁶ /M]	Ka (Hairpin ribozyme RNA [2]) [×10⁶ /M]	Ka (Hairpin ribozyme RNA [3]) [×10⁶ /M]	Ka (Hairpin ribozyme RNA [4]) [×10⁶ /M]
Cc1cn(CC(=O)N(CCNC(=O)CN(CCNC(=O)CN(CCNC(=O)CN(CCNC(=O)CN(CCNC(=O)[C@@H](N)CCCCN)C(=O)Cn2ccc(N)nc2=O)C(=O)Cn2cc(C)c(=O)[nH]c2=O)C(=O)Cn2ccc(N)nc2=O)C(=O)Cn2cnc3nc(N)[nH]c(=O)c32)CC(=O)NCCN(CC(N)=O)C(=O)Cn2ccc(N)nc2=O)c(=O)[nH]c1=O	1.5	0.4	0.2	0.09
Cc1cn(CC(=O)N(CCNC(=O)CN(CCNC(=O)CN(CCNC(=O)CN(CCNC(=O)CN(CCNC(=O)[C@@H](N)CCCCN)C(=O)Cn2ccc(N)nc2=O)C(=O)Cn2cc(C)c(=O)[nH]c2=O)C(=O)Cn2ccc(N)nc2=O)C(=O)Cn2cnc3ncnc(N)c32)CC(=O)NCCN(CC(N)=O)C(=O)Cn2ccc(N)nc2=O)c(=O)[nH]c1=O	6	1.6	0.7	0.05
Cc1cn(CC(=O)N(CCNC(=O)CN(CCNC(=O)CN(CCNC(=O)CN(CCNC(=O)CN(CCNC(=O)[C@@H](N)CCCCN)C(=O)Cn2ccc(N)nc2=O)C(=O)Cn2cc(C)c(=O)[nH]c2=O)C(=O)Cn2ccc(N)nc2=O)C(=O)Cn2ccc(N)nc2=O)CC(=O)NCCN(CC(N)=O)C(=O)Cn2ccc(N)nc2=O)c(=O)[nH]c1=O	84	0.4	0.5	0.2
Cc1cn(CC(=O)N(CCNC(=O)CN(CCNC(=O)CN(CCNC(=O)CN(CCNC(=O)[C@@H](N)CCCCN)C(=O)Cn2ccc(N)nc2=O)C(=O)Cn2cc(C)c(=O)[nH]c2=O)C(=O)Cn2ccc(N)nc2=O)CC(=O)NCCN(CC(=O)NCCN(CC(N)=O)C(=O)Cn2ccc(N)nc2=O)C(=O)Cn2cc(C)c(=O)[nH]c2=O)c(N)nc1=O	0.51	0.82	1.01	0.77
Cc1cn(CC(=O)N(CCNC(=O)CN(CCNC(=O)CN(CCNC(=O)CN(CCNC(=O)CN(CCNC(=O)[C@@H](N)CCCCN)C(=O)Cn2ccc(N)nc2=O)C(=O)Cn2cc(C)c(=O)[nH]c2=O)C(=O)Cn2ccc(N)nc2=O)C(=O)Cn2cc(C)c(=O)[nH]c2=O)CC(=O)NCCN(CC(N)=O)C(=O)Cn2ccc(N)nc2=O)c(=O)[nH]c1=O	2.7	47	0.5	0.02
